From ChEMBL document CHEMBL4311997, “Discovery of a potent histone deacetylase (HDAC) 3/6 selective dual inhibitor” (Eur J Med Chem, 2019)
In brackets after ≈: the same amount, converted by molar mass. Activity calls are given as the source filed them. The calls are words filed in the database; no cut-off is given here.

Assays:
[1] = biological target: Histone-lysine N-methyltransferase SUV39H1 (Homo sapiens) (UniProt O43463); assay: Inhibition of human SUV39H1 at 100 uM using histone H3 as substrate incubated for 1 hr in presence of [3H]-SAM by filter binding method relative to control
[2] = biological target: Histone-lysine N-methyltransferase SETD7 (Homo sapiens) (UniProt Q8WTS6); assay: Inhibition of human SET7/9 at 100 uM using core histone as substrate incubated for 1 hr in presence of [3H]-SAM by filter binding method relative to control
[3] = biological target: Protein arginine N-methyltransferase 1 (Homo sapiens) (UniProt Q99873); assay: Inhibition of human PRMT1 at 100 uM using histone H4 as substrate incubated for 1 hr in presence of [3H]-SAM by filter binding method relative to control
[4] = species on record: Homo sapiens; assay: Inhibition of human MLL1 complex at 100 uM using core histone as substrate incubated for 1 hr in presence of [3H]-SAM by filter binding method relative to control
[5] = species on record: Homo sapiens; assay: Inhibition of human EZH2 complex at 100 uM using core histone as substrate incubated for 1 hr in presence of [3H]-SAM by filter binding method relative to control
[6] = biological target: DNA (cytosine-5)-methyltransferase 3A (Homo sapiens, UniProt Q9Y6K1); assay: Inhibition of human DNMT3a using lambda DNA as substrate incubated for 1 hr in presence of [3H]-SAM by filter binding method
[7] = species on record: Homo sapiens; assay: Selectivity ratio of IC50 for human HDAC8 to IC50 for human HDAC6
[8] = species on record: Homo sapiens; assay: Selectivity ratio of IC50 for human HDAC2 to IC50 for human HDAC6
[9] = species on record: Homo sapiens; assay: Selectivity ratio of IC50 for human HDAC3 to IC50 for human HDAC6
[10] = biological target: Histone deacetylase 8 (Homo sapiens, UniProt Q9BY41); assay: Inhibition of human HDAC8 using Arg-His-Lys (Ac)-Lys (Ac) as substrate incubated for 2 hrs by fluorescence assay
[11] = biological target: Histone deacetylase 3 (Homo sapiens, UniProt O15379); assay: Inhibition of human HDAC3 using Arg-His-Lys-Lys (Ac) as substrate incubated for 2 hrs by fluorescence assay
[12] = tested on: MDA-MB-231; assay: Antiproliferative activity against human MDA-MB-231 cells incubated for 72 hrs by MTT assay; type: functional, cell-based; settings: MDA-MB-231, 72 h
[13] = tested on: NCI-H929; assay: Antiproliferative activity against human NCI-H929 cells incubated for 48 hrs by CellTiter-Glo luminescent cell viability assay; type: functional, cell-based; settings: NCI-H929, 48 h
[14] = tested on: OPM-2; assay: Antiproliferative activity against human OPM2 cells incubated for 48 hrs by CellTiter-Glo luminescent cell viability assay; type: functional, cell-based; settings: OPM-2, 48 h
[15] = tested on: MDA-MB-231; assay: Induction of apoptosis in human MDA-MB-231 cells assessed as early apoptotic cells at 3 uM incubated for 48 hrs by Annexin V-FITC/PI staining by flow cytometric analysis (reference value: 5%); type: functional
[16] = tested on: MDA-MB-231; assay: Induction of apoptosis in human MDA-MB-231 cells assessed as necrotic cells at 3 uM incubated for 48 hrs by Annexin V-FITC/PI staining by flow cytometric analysis (reference value: 15%); type: functional
[17] = tested on: MDA-MB-231; assay: Induction of apoptosis in human MDA-MB-231 cells assessed as early apoptotic cells at 6 uM incubated for 48 hrs by Annexin V-FITC/PI staining by flow cytometric analysis (reference value: 5%); type: functional
[18] = tested on: MDA-MB-231; assay: Induction of apoptosis in human MDA-MB-231 cells assessed as late apoptotic cells at 6 uM incubated for 48 hrs by Annexin V-FITC/PI staining by flow cytometric analysis (reference value: 3%); type: functional
[19] = tested on: MDA-MB-231; assay: Induction of apoptosis in human MDA-MB-231 cells assessed as viable cells at 9 uM incubated for 48 hrs by Annexin V-FITC/PI staining by flow cytometric analysis (reference value: 77%); type: functional; settings: MDA-MB-231, 48 h, read-out: Activity
[20] = tested on: MDA-MB-231; assay: Induction of apoptosis in human MDA-MB-231 cells assessed as necrotic cells at 9 uM incubated for 48 hrs by Annexin V-FITC/PI staining by flow cytometric analysis (reference value: 15%); type: functional
[21] = biological target: Histone deacetylase 1/2/3 (Homo sapiens, UniProt Q13547+O15379+Q92769); assay: Inhibition of HDAC1/2/3 in human KMS-12-BM cells assessed as increase in Ac-H3 level incubated for 24 hrs by Western blot analysis; type: cell-based
[22] = tested on: KMS-12-BM; assay: Effect on human KMS-12-BM cells assessed as increase in H3K9Me2 level at 2.5 to 10 uM incubated for 24 hrs by Western blot analysis; type: functional, cell-based
[23] = Kinetic solubility in pH 7.4 universal buffer measured after 3 hrs by UV spectroscopic analysis; type: physicochemical; settings: read-out: Kinetic_solubility
[24] = Effective permeability of the compound at pH 7.4 measured after 6 hrs by PAMPA assay; type: ADME; settings: read-out: Peff
[25] = Therapeutic Index, ratio of EC50 for human AC10 cells to EC50 for human MDA-MB-231 cells; type: toxicity; settings: AC10 cells versus MDA-MB-231 cells, read-out: Ratio EC50
[26] = Half life in mouse liver microsomes at 3 uM preincubated for 5 mins followed by NADPH addition and measured up to 45 mins by LC-MS/MS analysis; type: ADME, Microsome
[27] = Half life in female rat liver microsomes at 3 uM preincubated for 5 mins followed by NADPH addition and measured up to 45 mins by LC-MS/MS analysis; type: ADME, Microsome
[28] = Intrinsic clearance in female rat liver microsomes at 3 uM preincubated for 5 mins followed by NADPH addition and measured up to 45 mins by LC-MS/MS analysis; type: ADME, Microsome
[29] = Intrinsic clearance in male rat liver microsomes at 3 uM preincubated for 5 mins followed by NADPH addition and measured up to 45 mins by LC-MS/MS analysis; type: ADME, Microsome; settings: read-out: CLH
[30] = Selectivity index, ratio of EC50 for human MDA-MB-231 cells to IC50 for ring stage Plasmodium falciparum K1; type: functional; set-up: reference not given here
[31] = biological target: Histone-lysine N-methyltransferase EHMT2 (Homo sapiens, UniProt Q96KQ7); assay: Inhibition of human G9a using core histone H3 (1 to 21 residues) as substrate incubated for 1 hr in presence of [3H]-SAM by filter binding method
[32] = Inhibition of human MLL1 complex using core histone as substrate incubated for 1 hr in presence of [3H]-SAM by filter binding method
[33] = species on record: Homo sapiens; assay: Selectivity ratio of IC50 for human HDAC9 to IC50 for human HDAC6
[34] = species on record: Homo sapiens; assay: Selectivity ratio of IC50 for inhibition of human HDAC1 to IC50 for inhibition of human HDAC3
[35] = Genotoxicity in Salmonella typhimurium TA100 in presence of S9 fraction incubated for 48 hrs by Ames test relative to control; type: toxicity, subcellular; settings: salmonella enterica subsp. enterica serovar typhimurium, s9, 48 h
[36] = biological target: Histone deacetylase 1 (Homo sapiens, UniProt Q13547)
Chain of Histone deacetylase 1 (Q13547 whole entry): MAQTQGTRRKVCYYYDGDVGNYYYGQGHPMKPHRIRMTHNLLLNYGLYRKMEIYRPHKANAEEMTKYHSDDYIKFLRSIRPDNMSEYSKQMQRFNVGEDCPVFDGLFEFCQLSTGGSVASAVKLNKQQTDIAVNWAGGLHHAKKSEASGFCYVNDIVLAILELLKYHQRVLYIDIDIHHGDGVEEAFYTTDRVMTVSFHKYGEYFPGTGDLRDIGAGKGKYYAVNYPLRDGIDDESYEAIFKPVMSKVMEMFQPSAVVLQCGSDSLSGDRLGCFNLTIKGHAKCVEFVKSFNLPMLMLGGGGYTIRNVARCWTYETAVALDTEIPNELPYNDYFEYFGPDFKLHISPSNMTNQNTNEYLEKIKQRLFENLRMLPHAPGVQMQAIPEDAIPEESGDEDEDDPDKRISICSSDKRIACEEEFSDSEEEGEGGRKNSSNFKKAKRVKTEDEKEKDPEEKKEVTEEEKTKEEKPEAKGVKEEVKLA
Description: Inhibition of human HDAC1 using Arg-His-Lys-Lys (Ac) as substrate incubated for 2 hrs by fluorescence assay

Chain of Histone deacetylase 8 (Q9BY41 whole entry): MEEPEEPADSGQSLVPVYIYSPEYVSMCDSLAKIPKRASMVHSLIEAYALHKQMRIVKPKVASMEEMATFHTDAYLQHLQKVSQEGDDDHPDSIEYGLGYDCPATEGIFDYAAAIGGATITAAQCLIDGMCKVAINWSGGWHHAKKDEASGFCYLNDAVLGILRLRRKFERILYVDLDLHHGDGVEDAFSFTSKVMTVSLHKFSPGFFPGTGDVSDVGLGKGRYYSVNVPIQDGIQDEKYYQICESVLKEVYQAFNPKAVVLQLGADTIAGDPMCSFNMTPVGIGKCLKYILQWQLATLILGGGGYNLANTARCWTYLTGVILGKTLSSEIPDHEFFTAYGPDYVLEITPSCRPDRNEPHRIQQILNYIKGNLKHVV
Chain of DNA (cytosine-5)-methyltransferase 3A (Q9Y6K1 whole entry, looked up): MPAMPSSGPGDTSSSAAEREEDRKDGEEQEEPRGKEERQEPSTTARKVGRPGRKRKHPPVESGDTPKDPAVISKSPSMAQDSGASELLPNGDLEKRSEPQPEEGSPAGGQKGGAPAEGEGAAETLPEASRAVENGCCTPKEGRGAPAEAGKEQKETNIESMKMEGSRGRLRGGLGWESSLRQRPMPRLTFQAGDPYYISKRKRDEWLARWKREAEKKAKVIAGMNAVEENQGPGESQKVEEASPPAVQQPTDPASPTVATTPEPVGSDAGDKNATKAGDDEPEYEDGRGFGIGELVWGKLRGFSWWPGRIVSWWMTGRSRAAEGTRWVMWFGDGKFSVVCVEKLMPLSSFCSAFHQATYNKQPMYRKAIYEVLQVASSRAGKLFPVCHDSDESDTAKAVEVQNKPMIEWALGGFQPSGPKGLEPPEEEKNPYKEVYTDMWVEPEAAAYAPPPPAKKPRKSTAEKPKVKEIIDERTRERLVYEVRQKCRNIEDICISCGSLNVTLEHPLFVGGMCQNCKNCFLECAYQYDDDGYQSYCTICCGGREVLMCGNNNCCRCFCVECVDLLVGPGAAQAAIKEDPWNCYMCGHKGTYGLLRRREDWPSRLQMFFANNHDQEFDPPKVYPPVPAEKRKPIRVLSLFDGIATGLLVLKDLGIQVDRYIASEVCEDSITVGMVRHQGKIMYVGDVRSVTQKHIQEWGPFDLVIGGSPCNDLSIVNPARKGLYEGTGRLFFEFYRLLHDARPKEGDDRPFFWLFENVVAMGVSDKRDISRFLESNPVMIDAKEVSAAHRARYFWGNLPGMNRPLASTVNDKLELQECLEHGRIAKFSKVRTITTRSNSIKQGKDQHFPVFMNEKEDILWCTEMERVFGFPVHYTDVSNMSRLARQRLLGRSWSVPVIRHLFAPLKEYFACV
Chain of Histone-lysine N-methyltransferase SETD7 (Homo sapiens) (Q8WTS6 whole entry): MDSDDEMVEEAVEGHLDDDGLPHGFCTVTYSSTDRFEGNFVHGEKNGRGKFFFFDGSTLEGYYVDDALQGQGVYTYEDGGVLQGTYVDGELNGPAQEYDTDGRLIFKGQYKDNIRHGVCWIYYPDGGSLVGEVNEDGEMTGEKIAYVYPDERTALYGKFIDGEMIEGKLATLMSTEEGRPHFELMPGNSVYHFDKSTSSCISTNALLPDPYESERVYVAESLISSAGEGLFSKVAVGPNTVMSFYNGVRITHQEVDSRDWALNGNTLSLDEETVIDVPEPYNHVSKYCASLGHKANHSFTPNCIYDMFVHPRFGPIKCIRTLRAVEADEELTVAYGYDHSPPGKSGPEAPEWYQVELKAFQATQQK
Chain of Histone-lysine N-methyltransferase EHMT2 (Q96KQ7 whole entry, the tested form may be a part): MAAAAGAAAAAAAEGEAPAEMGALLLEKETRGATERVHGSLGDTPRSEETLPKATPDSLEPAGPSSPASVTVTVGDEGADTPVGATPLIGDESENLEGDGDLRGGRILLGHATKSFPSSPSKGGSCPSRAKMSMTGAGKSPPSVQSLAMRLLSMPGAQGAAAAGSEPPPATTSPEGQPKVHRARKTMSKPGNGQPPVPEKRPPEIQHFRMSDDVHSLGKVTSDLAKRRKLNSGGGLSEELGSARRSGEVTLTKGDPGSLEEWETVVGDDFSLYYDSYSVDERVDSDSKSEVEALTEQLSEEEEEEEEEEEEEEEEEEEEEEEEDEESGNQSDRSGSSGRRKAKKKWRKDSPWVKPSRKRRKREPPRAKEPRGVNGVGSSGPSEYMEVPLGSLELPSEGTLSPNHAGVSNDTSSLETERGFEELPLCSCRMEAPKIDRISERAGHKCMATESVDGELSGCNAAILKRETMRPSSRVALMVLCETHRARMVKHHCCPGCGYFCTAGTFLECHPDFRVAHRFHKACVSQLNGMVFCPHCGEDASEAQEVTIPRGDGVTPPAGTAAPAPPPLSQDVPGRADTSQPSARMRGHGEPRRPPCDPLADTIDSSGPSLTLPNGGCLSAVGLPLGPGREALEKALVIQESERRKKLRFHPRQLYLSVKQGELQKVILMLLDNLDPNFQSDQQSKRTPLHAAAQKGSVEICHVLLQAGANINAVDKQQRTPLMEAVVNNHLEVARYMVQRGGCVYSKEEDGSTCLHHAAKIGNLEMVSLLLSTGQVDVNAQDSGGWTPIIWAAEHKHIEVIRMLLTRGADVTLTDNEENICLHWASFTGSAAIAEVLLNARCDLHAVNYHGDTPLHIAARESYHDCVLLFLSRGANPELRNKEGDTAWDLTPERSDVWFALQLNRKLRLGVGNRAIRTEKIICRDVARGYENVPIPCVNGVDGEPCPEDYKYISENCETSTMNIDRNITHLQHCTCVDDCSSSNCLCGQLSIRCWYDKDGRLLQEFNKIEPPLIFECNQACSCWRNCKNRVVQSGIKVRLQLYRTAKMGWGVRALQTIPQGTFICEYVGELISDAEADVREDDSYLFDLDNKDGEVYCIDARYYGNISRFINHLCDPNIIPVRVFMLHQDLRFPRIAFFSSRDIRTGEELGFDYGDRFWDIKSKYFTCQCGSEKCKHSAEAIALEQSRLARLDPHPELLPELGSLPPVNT
Chain of Histone deacetylase 3 (O15379 whole entry): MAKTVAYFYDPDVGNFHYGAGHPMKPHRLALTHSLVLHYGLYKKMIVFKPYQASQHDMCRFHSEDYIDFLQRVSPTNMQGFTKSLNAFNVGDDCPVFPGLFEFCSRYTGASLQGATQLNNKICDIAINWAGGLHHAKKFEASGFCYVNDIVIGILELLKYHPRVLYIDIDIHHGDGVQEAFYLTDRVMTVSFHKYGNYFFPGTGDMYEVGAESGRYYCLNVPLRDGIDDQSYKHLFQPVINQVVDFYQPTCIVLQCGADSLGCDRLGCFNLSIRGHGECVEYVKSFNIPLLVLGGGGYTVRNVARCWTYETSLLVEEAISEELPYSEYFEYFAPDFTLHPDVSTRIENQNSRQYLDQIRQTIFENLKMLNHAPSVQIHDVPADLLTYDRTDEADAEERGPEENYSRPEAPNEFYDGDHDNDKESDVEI
Chain of Histone-lysine N-methyltransferase SUV39H1 (Homo sapiens) (O43463 whole entry): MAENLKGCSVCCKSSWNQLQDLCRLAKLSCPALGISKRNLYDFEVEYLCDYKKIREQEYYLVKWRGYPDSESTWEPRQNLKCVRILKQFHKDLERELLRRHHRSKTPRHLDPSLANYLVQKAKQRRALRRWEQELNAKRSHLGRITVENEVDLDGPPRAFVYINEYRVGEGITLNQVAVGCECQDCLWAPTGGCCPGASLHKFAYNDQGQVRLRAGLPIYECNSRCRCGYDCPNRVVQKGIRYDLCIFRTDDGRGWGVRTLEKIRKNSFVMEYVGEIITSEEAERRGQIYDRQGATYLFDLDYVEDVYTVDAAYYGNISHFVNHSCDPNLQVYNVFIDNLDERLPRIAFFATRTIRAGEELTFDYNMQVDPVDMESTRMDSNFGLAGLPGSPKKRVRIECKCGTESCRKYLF
Chain of Protein arginine N-methyltransferase 1 (Homo sapiens) (Q99873 whole entry, looked up): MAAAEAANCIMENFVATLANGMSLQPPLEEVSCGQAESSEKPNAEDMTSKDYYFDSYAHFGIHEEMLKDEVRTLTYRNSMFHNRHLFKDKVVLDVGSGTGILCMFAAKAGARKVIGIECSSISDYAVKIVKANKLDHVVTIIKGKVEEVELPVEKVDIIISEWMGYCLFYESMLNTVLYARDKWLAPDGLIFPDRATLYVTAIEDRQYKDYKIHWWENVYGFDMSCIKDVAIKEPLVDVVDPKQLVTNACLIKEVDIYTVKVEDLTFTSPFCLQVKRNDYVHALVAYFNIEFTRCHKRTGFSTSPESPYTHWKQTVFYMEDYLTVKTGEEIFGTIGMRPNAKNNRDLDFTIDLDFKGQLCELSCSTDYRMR

inhibition [1]: 14%
inhibition [2]: 19%
inhibition [3]: inactive
inhibition [4]: 42%
inhibition [5]: 27%
IC50 [6]: 74 µM
Ratio IC50 [7]: 485
Ratio IC50 [8]: 435
Ratio IC50 [9]: 13
IC50 [10]: 1.26 µM
IC50 [11]: 0.034 µM
EC50 [12]: 6.3 µM
EC50 [13]: 4.6 µM
EC50 [21]: 7.5 µM
inhibition [21]: Dose-dependent effect
solubility kinetic at 3 h [23]: 4.6 µM (≈ 3.15 µg/mL)
Papp at 6 h [24]: 21.8 ×10⁻⁶ cm/s
half-life at 3 µM [26]: 0.443 h
half-life at 3 µM [27]: 1.73 h
microsomal CLint at 3 µM [28]: 22.3 µL/min/mg
microsomal CLint at 3 µM [29]: 16.3 µL/min/mg
EC50 [31]: 142 µM
EC50 [32]: 158 µM
Ratio IC50 [33]: > 3000
Ratio IC50 [34]: 26 to 33
IC50 [36]: 0.896 µM
SMILES: COc1ccc(CN2CCC(Nc3nc(Nc4ccc(NC(=O)CCCCCCC(=O)NO)cc4)nc4cc(OC)c(OC)cc34)CC2)cc1
EC50 [14]: 7.9 µM
Activity [15]: 23%
Activity [16]: 15%
Activity [17]: 18%
Activity [18]: 15%
viability at 9 µM [19]: 57%
Activity [20]: 8%
Activity [22]: Active
selectivity ratio [25]: 15
Selectivity Index [30]: 12
Activity [35]: Non-Toxic
